Results published in patent publication US20090018111A1, “Novel Antimicrobial Medicament” (priority 2004, published 2009).
Where two headings read alike, the source gives them in different places.

Experiments:
E. coli NIHJ JC-2 = test: Sensitivity test (agar dilution); format: cell-based, Escherichia coli; conditions: Escherichia coli, E. coli NIHJ JC-2
Procedure, shortened: (§1)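 Water-dissolved compounds, alone or mixed, were incorporated into Mueller Hinton agar at twofold serial concentrations. Spot inoculation used about 5 μl of about 10^6 CFU/ml suspension.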

E. coli ML1410 = test: Sensitivity test (agar dilution); format: cell-based, Escherichia coli; conditions: Escherichia coli, E. coli ML1410
Procedure, shortened: as §1

P. aeruginosa IFO3451 = test: Sensitivity test (agar dilution); format: cell-based, Pseudomonas aeruginosa; conditions: Pseudomonas aeruginosa, P. aeruginosa IFO3451
Procedure, shortened: as §1

P. aeruginosa TL-2666 = test: Sensitivity test (agar dilution); format: cell-based, Pseudomonas aeruginosa; conditions: Pseudomonas aeruginosa, P. aeruginosa TL-2666
Procedure, shortened: as §1

P. aeruginosa TL-2667 = test: Sensitivity test (agar dilution); format: cell-based, Pseudomonas aeruginosa; conditions: Pseudomonas aeruginosa, P. aeruginosa TL-2667
Procedure, shortened: as §1

E. faecium ATCC19434 = test: Sensitivity test (agar dilution); format: cell-based, Enterococcus faecium; conditions: Enterococcus faecium, E. faecium ATCC19434
Procedure, shortened: as §1

E. cloacae GN7471 = test: Sensitivity test (agar dilution); format: cell-based, Enterobacter cloacae; conditions: Enterobacter cloacae, E. cloacae GN7471
Procedure, shortened: as §1

[1] = tested on: S. aureus SP-7928 (homo-MRSA); test: Sensitivity test (agar dilution); format: cell-based, Staphylococcus aureus; conditions: Staphylococcus aureus, MRSA, S. aureus SP-7928 (homo-MRSA)
Procedure, shortened: as §1

[2] = tested on: S. aureus MS94088 (hetero-MRSA); test: Sensitivity test (agar dilution); format: cell-based, Staphylococcus aureus; conditions: Staphylococcus aureus, MRSA, S. aureus MS94088 (hetero-MRSA)
Procedure, shortened: as §1

S. aureus 209P = test: Sensitivity test (agar dilution); format: cell-based, Staphylococcus aureus; conditions: Staphylococcus aureus, 209P, S. aureus 209P
Procedure, shortened: as §1

E. coli ML1410 RP4 = test: microbe, parasite or virus in culture; format: cell-based, Escherichia coli; conditions: Escherichia coli, E. coli ML1410 RP4
Procedure, shortened: as §1

K. pneumoniae ATCC10031 = test: Sensitivity test (agar dilution); format: cell-based, Klebsiella pneumoniae; conditions: Klebsiella pneumoniae, K. pneumoniae ATCC10031
Procedure, shortened: as §1

S. maltophilia IID1275 = test: Sensitivity test (agar dilution); format: cell-based, Stenotrophomonas maltophilia; conditions: Stenotrophomonas maltophilia, S. maltophilia IID1275
Procedure, shortened: as §1

[3] = NIHJJC2, drug alone, read-out: MIC alone
[4] = ML1410, drug alone, read-out: MIC alone
[5] = IFO3451, drug alone, read-out: MIC alone
[6] = TL2666, drug alone, read-out: MIC alone
[7] = TL2667, drug alone, read-out: MIC alone
[8] = ATCC19434, drug alone, read-out: MIC alone
[9] = GN7471, drug alone, read-out: MIC alone
[10] = Concomitant (PIPC:SM = 1:1), read-out: MIC concomitant
[11] = drug alone, read-out: MIC alone
[12] = ML1410RP4, read-out: MIC alone, drug alone
[13] = ATCC10031, drug alone, read-out: MIC alone
[14] = IID1275, drug alone, read-out: MIC alone
[15] = Concomitant (DRPM:SM = 1:1), read-out: MIC concomitant
[16] = Concomitant (CAZ:SM = 1:1), read-out: MIC concomitant
[17] = Concomitant (PAPM:SM = 1:1), read-out: MIC concomitant

## CCN1CCN(C(=O)N[C@@H](C(=O)N[C@@H]2C(=O)N3[C@@H]2SC(C)(C)[C@@H]3C(=O)O)c2ccccc2)C(=O)C1=O [PIPC, piperacillin]
E. coli NIHJ JC-2; NIHJJC2, Concomitant (PIPC:SM = 1:1), read-out: MIC concomitant
  MIC: 0.063 µg/mL
E. coli NIHJ JC-2; [3]
  MIC: 0.25 µg/mL
E. coli ML1410; ML1410, Concomitant (PIPC:SM = 1:1), read-out: MIC concomitant
  MIC: 0.125 µg/mL
E. coli ML1410; [4]
  MIC: 2 µg/mL
P. aeruginosa IFO3451; IFO3451, Concomitant (PIPC:SM = 1:1), read-out: MIC concomitant
  MIC: 8 µg/mL
P. aeruginosa IFO3451; [5]
  MIC: 4 µg/mL
P. aeruginosa TL-2666; TL2666, Concomitant (PIPC:SM = 1:1), read-out: MIC concomitant
  MIC: 16 µg/mL
P. aeruginosa TL-2666; [6]
  MIC: 1 µg/mL
P. aeruginosa TL-2667; TL2667, Concomitant (PIPC:SM = 1:1), read-out: MIC concomitant
  MIC: 16 µg/mL
P. aeruginosa TL-2667; [7]
  MIC: 2 µg/mL
E. faecium ATCC19434; ATCC19434, Concomitant (PIPC:SM = 1:1), read-out: MIC concomitant
  MIC: 0.125 µg/mL
E. faecium ATCC19434; [8]
  MIC: 8 µg/mL
E. cloacae GN7471; GN7471, Concomitant (PIPC:SM = 1:1), read-out: MIC concomitant
  MIC: 8 µg/mL
E. cloacae GN7471; [9]
  MIC: 16 µg/mL
[1]; [10]
  MIC: 1 µg/mL
[1]; [11]
  MIC: > 32 µg/mL
[2]; [10]
  MIC: 0.125 µg/mL
[2]; [11]
  MIC: > 32 µg/mL
S. aureus 209P; [10]
  MIC: 0.004 µg/mL
S. aureus 209P; [11]
  MIC: 0.25 µg/mL
E. coli ML1410 RP4; [12]
  MIC: > 32 µg/mL
E. coli ML1410 RP4; ML1410RP4, read-out: MIC concomitant, Concomitant (PIPC:SM = 1:1)
  MIC: 0.5 µg/mL
K. pneumoniae ATCC10031; ATCC10031, Concomitant (PIPC:SM = 1:1), read-out: MIC concomitant
  MIC: 0.016 µg/mL
K. pneumoniae ATCC10031; [13]
  MIC: 0.25 µg/mL
S. maltophilia IID1275; IID1275, Concomitant (PIPC:SM = 1:1), read-out: MIC concomitant
  MIC: > 32 µg/mL
S. maltophilia IID1275; [14]
  MIC: > 32 µg/mL

## C[C@@H](O)[C@H]1C(=O)N2C(C(=O)O)=C(S[C@@H]3CN[C@H](CNS(N)(=O)=O)C3)[C@H](C)[C@H]12 [DRPM, doripenem]
E. coli NIHJ JC-2; NIHJJC2, Concomitant (DRPM:SM = 1:1), read-out: MIC concomitant
  MIC: 0.016 µg/mL
E. coli NIHJ JC-2; [3]
  MIC: 0.016 µg/mL
E. coli ML1410; ML1410, Concomitant (DRPM:SM = 1:1), read-out: MIC concomitant
  MIC: 0.031 µg/mL
E. coli ML1410; [4]
  MIC: 0.031 µg/mL
P. aeruginosa IFO3451; IFO3451, Concomitant (DRPM:SM = 1:1), read-out: MIC concomitant
  MIC: 0.25 µg/mL
P. aeruginosa IFO3451; [5]
  MIC: 0.5 µg/mL
P. aeruginosa TL-2666; TL2666, Concomitant (DRPM:SM = 1:1), read-out: MIC concomitant
  MIC: 1 µg/mL
P. aeruginosa TL-2666; [6]
  MIC: 1 µg/mL
P. aeruginosa TL-2667; TL2667, Concomitant (DRPM:SM = 1:1), read-out: MIC concomitant
  MIC: 2 µg/mL
P. aeruginosa TL-2667; [7]
  MIC: 2 µg/mL
E. faecium ATCC19434; ATCC19434, Concomitant (DRPM:SM = 1:1), read-out: MIC concomitant
  MIC: 0.25 µg/mL
E. faecium ATCC19434; [8]
  MIC: 8 µg/mL
E. cloacae GN7471; GN7471, Concomitant (DRPM:SM = 1:1), read-out: MIC concomitant
  MIC: 0.031 µg/mL
E. cloacae GN7471; [9]
  MIC: 0.031 µg/mL
[1]; [15]
  MIC: 1 µg/mL
[1]; [11]
  MIC: 32 µg/mL
[2]; [15]
  MIC: 0.25 µg/mL
[2]; [11]
  MIC: 2 µg/mL
S. aureus 209P; [15]
  MIC: 0.004 µg/mL
S. aureus 209P; [11]
  MIC: 0.016 µg/mL
E. coli ML1410 RP4; [12]
  MIC: 0.031 µg/mL
E. coli ML1410 RP4; ML1410RP4, read-out: MIC concomitant, Concomitant (DRPM:SM = 1:1)
  MIC: 0.031 µg/mL
K. pneumoniae ATCC10031; ATCC10031, Concomitant (DRPM:SM = 1:1), read-out: MIC concomitant
  MIC: 0.008 µg/mL
K. pneumoniae ATCC10031; [13]
  MIC: 0.016 µg/mL
S. maltophilia IID1275; IID1275, Concomitant (DRPM:SM = 1:1), read-out: MIC concomitant
  MIC: > 32 µg/mL
S. maltophilia IID1275; [14]
  MIC: > 32 µg/mL

## CC(C)(O/N=C(\C(=O)N[C@@H]1C(=O)N2C(C(=O)[O-])=C(C[n+]3ccccc3)CS[C@H]12)c1csc(N)n1)C(=O)O [CAZ, ceftazidime]
E. coli NIHJ JC-2; NIHJJC2, Concomitant (CAZ:SM = 1:1), read-out: MIC concomitant
  MIC: 0.063 µg/mL
E. coli NIHJ JC-2; [3]
  MIC: 0.25 µg/mL
E. coli ML1410; ML1410, Concomitant (CAZ:SM = 1:1), read-out: MIC concomitant
  MIC: 0.063 µg/mL
E. coli ML1410; [4]
  MIC: 0.25 µg/mL
P. aeruginosa IFO3451; IFO3451, Concomitant (CAZ:SM = 1:1), read-out: MIC concomitant
  MIC: 2 µg/mL
P. aeruginosa IFO3451; [5]
  MIC: 1 µg/mL
P. aeruginosa TL-2666; TL2666, Concomitant (CAZ:SM = 1:1), read-out: MIC concomitant
  MIC: 8 µg/mL
P. aeruginosa TL-2666; [6]
  MIC: 0.5 µg/mL
P. aeruginosa TL-2667; TL2667, Concomitant (CAZ:SM = 1:1), read-out: MIC concomitant
  MIC: 8 µg/mL
P. aeruginosa TL-2667; [7]
  MIC: 1 µg/mL
E. faecium ATCC19434; ATCC19434, Concomitant (CAZ:SM = 1:1), read-out: MIC concomitant
  MIC: 0.125 µg/mL
E. faecium ATCC19434; [8]
  MIC: > 32 µg/mL
E. cloacae GN7471; GN7471, Concomitant (CAZ:SM = 1:1), read-out: MIC concomitant
  MIC: 8 µg/mL
E. cloacae GN7471; [9]
  MIC: 32 µg/mL
[1]; [16]
  MIC: 1 µg/mL
[1]; [11]
  MIC: > 32 µg/mL
[2]; [16]
  MIC: 0.25 µg/mL
[2]; [11]
  MIC: > 32 µg/mL
S. aureus 209P; [16]
  MIC: 0.004 µg/mL
S. aureus 209P; [11]
  MIC: 8 µg/mL
E. coli ML1410 RP4; [12]
  MIC: 0.5 µg/mL
E. coli ML1410 RP4; ML1410RP4, read-out: MIC concomitant, Concomitant (CAZ:SM = 1:1)
  MIC: 0.125 µg/mL
K. pneumoniae ATCC10031; ATCC10031, Concomitant (CAZ:SM = 1:1), read-out: MIC concomitant
  MIC: 0.008 µg/mL
K. pneumoniae ATCC10031; [13]
  MIC: 0.031 µg/mL
S. maltophilia IID1275; IID1275, Concomitant (CAZ:SM = 1:1), read-out: MIC concomitant
  MIC: > 32 µg/mL
S. maltophilia IID1275; [14]
  MIC: > 32 µg/mL

## CC(=N)N1CC[C@H](SC2=C(C(=O)O)N3C(=O)[C@H]([C@@H](C)O)[C@H]3C2)C1 [PAPM, panipenem]
E. coli NIHJ JC-2; NIHJJC2, Concomitant (PAPM:SM = 1:1), read-out: MIC concomitant
  MIC: 0.063 µg/mL
E. coli NIHJ JC-2; [3]
  MIC: 0.25 µg/mL
E. coli ML1410; ML1410, Concomitant (PAPM:SM = 1:1), read-out: MIC concomitant
  MIC: 0.125 µg/mL
E. coli ML1410; [4]
  MIC: 0.5 µg/mL
P. aeruginosa IFO3451; IFO3451, Concomitant (PAPM:SM = 1:1), read-out: MIC concomitant
  MIC: 2 µg/mL
P. aeruginosa IFO3451; [5]
  MIC: 4 µg/mL
P. aeruginosa TL-2666; TL2666, Concomitant (PAPM:SM = 1:1), read-out: MIC concomitant
  MIC: 8 µg/mL
P. aeruginosa TL-2666; [6]
  MIC: 8 µg/mL
P. aeruginosa TL-2667; TL2667, Concomitant (PAPM:SM = 1:1), read-out: MIC concomitant
  MIC: 16 µg/mL
P. aeruginosa TL-2667; [7]
  MIC: 16 µg/mL
E. faecium ATCC19434; ATCC19434, Concomitant (PAPM:SM = 1:1), read-out: MIC concomitant
  MIC: 0.125 µg/mL
E. faecium ATCC19434; [8]
  MIC: 8 µg/mL
E. cloacae GN7471; GN7471, Concomitant (PAPM:SM = 1:1), read-out: MIC concomitant
  MIC: 0.125 µg/mL
E. cloacae GN7471; [9]
  MIC: 0.25 µg/mL
[1]; [17]
  MIC: 2 µg/mL
[1]; [11]
  MIC: > 32 µg/mL
[2]; [17]
  MIC: 0.25 µg/mL
[2]; [11]
  MIC: 0.5 µg/mL
S. aureus 209P; [17]
  MIC: 0.004 µg/mL
S. aureus 209P; [11]
  MIC: 0.031 µg/mL
E. coli ML1410 RP4; [12]
  MIC: 0.5 µg/mL
E. coli ML1410 RP4; ML1410RP4, read-out: MIC concomitant, Concomitant (PAPM:SM = 1:1)
  MIC: 0.125 µg/mL
K. pneumoniae ATCC10031; ATCC10031, Concomitant (PAPM:SM = 1:1), read-out: MIC concomitant
  MIC: 0.016 µg/mL
K. pneumoniae ATCC10031; [13]
  MIC: 0.125 µg/mL
S. maltophilia IID1275; IID1275, Concomitant (PAPM:SM = 1:1), read-out: MIC concomitant
  MIC: > 32 µg/mL
S. maltophilia IID1275; [14]
  MIC: > 32 µg/mL
